# From patent US4582823A, “Method for treating schizophrenia and medicaments therefor” (Warner-Lambert Company, priority 1984, dated 1986)
# “Also recorded” adds a separate entry of the source. Where two headings read alike, the source gives them in different places.
# Key:
# [1] = system: haloperidol-induced dystonia in Cebus monkeys; settings: for # showing dystonia/Total: time 0
# Method: (§1) On test days, animals were given N^6 -(2,2-diphenylethyl)adenosine before or after haloperidol. Drugs were prepared as suspensions in 0.2% Methocel for oral and IP injection. Solutions for IM injections of haloperidol were made using lactic acid and of the adenosine using ethanol.
# [2] = system: haloperidol-induced dystonia in Cebus monkeys; test: Effect of N^6-(2,2-diphenylethyl)adenosine and haloperidol given together orally (capsule or gavage) on dystonia in Cebus monkeys; settings: for # showing dystonia/Total: time 0, haloperidol 0.5 PO capsule
# Method: as §1
# [3] = system: haloperidol-induced dystonia in Cebus monkeys; test: Attempted reversal of haloperidol-induced dystonia in sensitized Cebus monkeys; format: in vivo, Cebus monkeys (Cebus appella); settings: for # Reversed/Total: adenosine 8 mpk IM
# Method: as §1
# Sprague-Dawley male rats = test: rat locomotor activity (darkened actophotometer, 30 minutes); format: in vivo; settings: for Locomotor Activity, % Of Control ± SEM: 1 hr before test
# Method: Sprague-Dawley male rats were used.
# Each animal was then placed in a darkened actophotometer and locomotor activity was recorded automatically by a microcomputer for 30 minutes. Locomotor activity data were compared to the mean response of vehicle treated control and were expressed as percentage of activity relative to control.
structure (smiles),measurement,setting,value
"OC[C@H]1O[C@@H](n2cnc3c(NCC(c4ccccc4)c4ccccc4)ncnc32)[C@H](O)[C@@H]1O [N^6-(2,2-Diphenylethyl)adenosine]",animals in which haloperidol-induced dystonia was not blocked,"[1]; Cebus monkey, adenosine 8 mg/kg IM, haloperidol 0.5 mg/kg PO",3/6
same,blocking of haloperidol-induced dystonia by IM route (in words),"[1]; Cebus monkey, adenosine IM versus other routes",less effective in blocking haloperidol-induced dystonia than when administered by other routes
same,intensity of dystonia in animals displaying dystonia after combined treatment,"[1]; Cebus monkey, adenosine IP + haloperidol, relative to absence of the adenosine",less intense than those seen in the absence of the adenosine
same,prevention of development of dystonia (in words),"[1]; Cebus monkey, adenosine IP together with haloperidol PO",prevented the development of dystonia in a dose dependent fashion
same,# showing dystonia/Total,"[1]; adenosine 0.5 mpk IP, haloperidol 0.5 mpk PO",5/5
same,# showing dystonia/Total,"[1]; adenosine 1.5 mpk IP, haloperidol 0.5 mpk PO",4/6
same,# showing dystonia/Total,"[1]; adenosine 5 mpk IP, haloperidol 0.05 mpk IM, +30 Min.",0/6
same,# showing dystonia/Total,"[1]; adenosine 5 mpk IP, haloperidol 0.5 mpk PO",1/6
same,# showing dystonia/Total,"[1]; adenosine 20 mpk IP, haloperidol 0.05 mpk IM, +30 Min.",0/6
same,# showing dystonia/Total,"[1]; adenosine 20 mpk IP, haloperidol 0.5 mpk PO",0/6
same,depression induced by the adenosine,"[1]; monkey, in vivo",induced depression prior to the expected time of onset of the effects of haloperidol
same,onset of action (depression),"[1]; monkey, in vivo, ip",5 to 10 min
same,prevention of dystonia (conclusion),"[1]; sensitized Cebus monkeys, adenosine administered prior to haloperidol",prevented the dystonia normally produced by haloperidol
same,effect on development or severity of dystonias (in words),"[2]; Cebus monkey, adenosine together with haloperidol orally by capsule",did not appreciably affect the development or severity of dystonias
same,animals with marked reduction in the severity of dystonia,[2]; adenosine 5 mg/kg PO + haloperidol 0.5 mg/kg in a solution by gavage,4 of 5
same,# showing dystonia/Total,[2]; adenosine 5 mpk PO capsule,5/6
same,"prevention of dystonia, same capsule (conclusion)",[2]; adenosine and haloperidol in the same capsule,did not prevent dystonia induced by haloperidol
same,monkeys with dystonia,[2]; haloperidol 0.5 mg/kg with adenosine 5 mg/kg in a capsule,5 of 6
same,"severity of dystonia, gavage (conclusion)",[2]; solution of adenosine and haloperidol by gavage,reduced severity of dystonia
same,effect on severity of established dystonia,"[3]; Cebus monkey, adenosine 8 mpk IM after dystonias induced by haloperidol (IM or PO)",no effect on the severity of dystonia
same,reversal of ongoing dystonia (conclusion),"[3]; Cebus monkey, adenosine IM",did not reverse ongoing dystonia induced by haloperidol
same,# Reversed/Total,[3]; +30 Min. after haloperidol 0.05 IM,0/6
same,# Reversed/Total,[3]; +90 Min. after haloperidol 0.5 PO,0/6
same,effect on haloperidol induced inhibition of rat locomotor activity (conclusion),Sprague-Dawley male rats; combination with haloperidol,enhanced haloperidol induced inhibition of rat locomotor activity; also recorded: additive effect in combination with haloperidol
same,"Locomotor Activity, % Of Control ± SEM","Sprague-Dawley male rats; oral, adenosine 1 mg/kg + HPD 0.1 mg/kg, n=9",92.0 ± 2.8 % Of Control
same,"Locomotor Activity, % Of Control ± SEM","Sprague-Dawley male rats; oral, adenosine 1 mg/kg + HPD 0.3 mg/kg, n=9",40.7 ± 4.9 % Of Control
same,"Locomotor Activity, % Of Control ± SEM","Sprague-Dawley male rats; oral, adenosine 1 mg/kg + HPD 1.0 mg/kg, n=9",10.8 ± 2.6 % Of Control
same,"Locomotor Activity, % Of Control ± SEM","Sprague-Dawley male rats; oral, adenosine 1 mg/kg + Vehicle 5 ml/kg, n=9",93.8 ± 8.9 % Of Control
same,"Locomotor Activity, % Of Control ± SEM","Sprague-Dawley male rats; oral, adenosine 3 mg/kg + HPD 0.1 mg/kg, n=8",49.1 ± 10.0 % Of Control
same,"Locomotor Activity, % Of Control ± SEM","Sprague-Dawley male rats; oral, adenosine 3 mg/kg + HPD 0.3 mg/kg, n=17",21.6 ± 5.0 % Of Control
same,"Locomotor Activity, % Of Control ± SEM","Sprague-Dawley male rats; oral, adenosine 3 mg/kg + HPD 1.0 mg/kg, n=17",9.8 ± 2.1 % Of Control
same,"Locomotor Activity, % Of Control ± SEM","Sprague-Dawley male rats; oral, adenosine 3 mg/kg + HPD 3.0 mg/kg, n=9",4.3 ± 1.3 % Of Control
same,"Locomotor Activity, % Of Control ± SEM","Sprague-Dawley male rats; oral, adenosine 3 mg/kg + Vehicle 5 ml/kg, n=17",58.7 ± 5.2 % Of Control
same,alteration of haloperidol-induced inhibition of spontaneous locomotion,"Sprague-Dawley male rats; oral, adenosine 1.0 mg/kg + haloperidol",did not significantly alter the dose-related inhibition of spontaneous locomotion caused by haloperidol
same,enhancement of haloperidol locomotor inhibition,"Sprague-Dawley male rats; oral, adenosine 3.0 mg/kg + haloperidol 0.1 and 0.3 mg/kg",enhanced the locomotor inhibition
same,alteration of locomotion,"Sprague-Dawley male rats; oral, adenosine alone 1.0 mg/kg",did not significantly alter locomotion
same,reduction of locomotion,"Sprague-Dawley male rats; oral, adenosine alone 3.0 mg/kg",50%
"O=C(CCCN1CCC(O)(c2ccc(Cl)cc2)CC1)c1ccc(F)cc1 [Haloperidol, reference compound]",dystonic reactions in sensitized monkeys,"[1]; Cebus monkey, haloperidol 0.2 mpk PO",dystonic reactions were consistently manifest
same,# showing dystonia/Total,"[1]; adenosine 0 mpk IP, haloperidol 0.05 mpk IM, +30 Min.",5/5
same,onset of action (dystonia),"[1]; monkey, in vivo",3 to 7 min
same,onset of action (dystonia),"[1]; monkey, in vivo, po",60 to 180 min
same,monkeys with dystonia,[2]; haloperidol alone 0.5 mg/kg in a capsule,5 of 5
same,# showing dystonia/Total,[2]; no adenosine,5/5
same,"Locomotor Activity, % Of Control ± SEM","Sprague-Dawley male rats; oral, Vehicle 5 ml/kg + HPD 0.1 mg/kg, n=8 (run with 3 mg/kg adenosine)",80.4 ± 10.2 % Of Control
same,"Locomotor Activity, % Of Control ± SEM","Sprague-Dawley male rats; oral, Vehicle 5 ml/kg + HPD 0.1 mg/kg, n=9 (run with 1 mg/kg adenosine)",108.6 ± 8.6 % Of Control
same,"Locomotor Activity, % Of Control ± SEM","Sprague-Dawley male rats; oral, Vehicle 5 ml/kg + HPD 0.3 mg/kg, n=9 (run with 1 mg/kg adenosine)",46.0 ± 7.2 % Of Control
same,"Locomotor Activity, % Of Control ± SEM","Sprague-Dawley male rats; oral, Vehicle 5 ml/kg + HPD 0.3 mg/kg, n=17 (run with 3 mg/kg adenosine)",44.0 ± 4.5 % Of Control
same,"Locomotor Activity, % Of Control ± SEM","Sprague-Dawley male rats; oral, Vehicle 5 ml/kg + HPD 1.0 mg/kg, n=9 (run with 1 mg/kg adenosine)",21.8 ± 2.9 % Of Control
same,"Locomotor Activity, % Of Control ± SEM","Sprague-Dawley male rats; oral, Vehicle 5 ml/kg + HPD 1.0 mg/kg, n=17 (run with 3 mg/kg adenosine)",18.0 ± 2.5 % Of Control
same,"Locomotor Activity, % Of Control ± SEM","Sprague-Dawley male rats; oral, Vehicle 5 ml/kg + HPD 3.0 mg/kg, n=9 (run with 3 mg/kg adenosine)",8.2 ± 2.1 % Of Control
